In BindingDB's records for doi:10.3109/14756366.2011.596836 (Artvin Coruh University, 2012):

Columns and labels:
Test in all cases: CA Activity Assay
Settings in all cases: pH 7.4
Carbonic anhydrase 2 = Carbonic anhydrase 2 (Homo sapiens, UniProt P00918)
Protocol: (§1) The enzymatic reaction, in a total volume of 3.0 mL, contained 1.4-mL 0.05-M Tris SO4 buffer (pH 7.4), 1-mL 3-mM 4-NPA, 0.5-mL H2O and 0.1-mL enzyme solution. A reference measurement was obtained by preparing the same cuvette without enzyme solution. The inhibitory effects of the phenolic compounds were examined. All compounds were tested in triplicate at each concentration used. Different concentrations of the compounds were used.

Carbonic anhydrase 6 = Carbonic anhydrase 6 (Homo sapiens, UniProt P23280)
Sequence of Carbonic anhydrase 6 (P23280 whole entry): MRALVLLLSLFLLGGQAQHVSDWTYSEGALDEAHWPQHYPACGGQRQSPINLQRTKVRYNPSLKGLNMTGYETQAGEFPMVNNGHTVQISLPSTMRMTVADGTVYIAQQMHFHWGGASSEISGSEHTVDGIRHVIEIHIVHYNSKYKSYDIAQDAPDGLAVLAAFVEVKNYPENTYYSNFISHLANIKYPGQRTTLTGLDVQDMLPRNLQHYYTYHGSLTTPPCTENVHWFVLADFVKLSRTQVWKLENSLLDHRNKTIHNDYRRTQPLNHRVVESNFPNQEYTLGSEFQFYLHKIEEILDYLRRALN
Protocol: as §1

Carbonic anhydrase 1 = Carbonic anhydrase 1 (Homo sapiens, UniProt P00915)
Sequence of Carbonic anhydrase 1 (P00915 whole entry): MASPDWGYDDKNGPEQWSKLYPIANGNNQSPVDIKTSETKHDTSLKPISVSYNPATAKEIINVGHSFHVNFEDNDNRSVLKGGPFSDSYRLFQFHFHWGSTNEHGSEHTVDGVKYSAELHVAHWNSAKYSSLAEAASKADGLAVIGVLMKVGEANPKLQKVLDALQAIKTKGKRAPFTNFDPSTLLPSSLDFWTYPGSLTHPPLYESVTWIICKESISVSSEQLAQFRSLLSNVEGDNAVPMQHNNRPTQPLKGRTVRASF
Protocol: as §1

Row | Structure (SMILES) | Ki (Carbonic anhydrase 2) [µM] | Ki (Carbonic anhydrase 6) [µM] | Ki (Carbonic anhydrase 1) [µM]
1 | O=C(c1ccc(O)c(O)c1)c1ccc(O)c(O)c1 [Bis(3,4-dihydroxyphenyl)methanone] | 1.44 | 11.4 | 18
2 | COc1ccc(C(=O)c2ccc(OC)c(OC)c2)cc1OC [hCA inhibitor, 2] | 47.8 | 293 | 403
